Data as given in patent EP0647227B1, “PURINONE ANTIANGINAL AGENTS” (Pfizer Limited, priority 1992, dated 1994).

Tested on: calcium/calmodulin (Ca/CAM)-independent cGMP PDE
Assay: Phosphodiesterase activity: in vitro PDE inhibition, modified "batch" method of Thompson and Appleman
Format: biochemical, rabbit
Settings: selectivity between Ca/CAM-independent cGMP PDE and cGMP-inhibited cAMP PDE (cAMP IC50 / cGMP IC50)
Source text: The calcium/calmodulin (Ca/CAM)-independent cGMP PDE and the cGMP-inhibited cAMP PDE enzymes are obtained from rabbit platelets whilst, of the four major PDE enzymes of the rat kidney, the Ca/CAM-dependent cGMP PDE (fraction I) is isolated.

Row | SMILES | SELECTIVITY RATIO | S[…]
1 | CCCn1cnc2c(=O)[nH]c(-c3ccccc3OCC)nc21 [Example 1, 2-(2-Ethoxyphenyl)-9-n-propylpurin-6-one] | >1,030 | 
2 | CCCn1cnc2c(=O)[nH]c(-c3cc(S(=O)(=O)N4CCNCC4)ccc3OCC)nc21 [Example 2, 2-[2-Ethoxy-5-(1-piperazinylsulphonyl)phenyl]-9-n-propylpurin-6-one] | 6,250 | 
3 | CCCn1cnc2c(=O)[nH]c(-c3cc(S(=O)(=O)N4CCN(C)CC4)ccc3OCC)nc21 [Example 3, 2-[2-Ethoxy-5-(4-methyl-1-piperazinylsulphonyl)phenyl]-9-n-propylpurin-6-one] |  | 12,500
